Inhibition and IC50 data for seven molecules are collected here from ChEMBL document CHEMBL2346520, “Design, synthesis and biological evaluation of novel imidazo[4,5-c]pyridinecarboxamide derivatives as PARP-1 inhibitors” (Bioorg Med Chem Lett, 2013).

The term inhibition denotes the share of the control response that was lost under treatment. In general, IC50 refers to the concentration at which inhibition is half-maximal.

The first assay deals with T1, Poly [ADP-ribose] polymerase 1 (Homo sapiens, UniProt P09874). Conditions: 100 uM.
T1 sequence (P09874 whole entry): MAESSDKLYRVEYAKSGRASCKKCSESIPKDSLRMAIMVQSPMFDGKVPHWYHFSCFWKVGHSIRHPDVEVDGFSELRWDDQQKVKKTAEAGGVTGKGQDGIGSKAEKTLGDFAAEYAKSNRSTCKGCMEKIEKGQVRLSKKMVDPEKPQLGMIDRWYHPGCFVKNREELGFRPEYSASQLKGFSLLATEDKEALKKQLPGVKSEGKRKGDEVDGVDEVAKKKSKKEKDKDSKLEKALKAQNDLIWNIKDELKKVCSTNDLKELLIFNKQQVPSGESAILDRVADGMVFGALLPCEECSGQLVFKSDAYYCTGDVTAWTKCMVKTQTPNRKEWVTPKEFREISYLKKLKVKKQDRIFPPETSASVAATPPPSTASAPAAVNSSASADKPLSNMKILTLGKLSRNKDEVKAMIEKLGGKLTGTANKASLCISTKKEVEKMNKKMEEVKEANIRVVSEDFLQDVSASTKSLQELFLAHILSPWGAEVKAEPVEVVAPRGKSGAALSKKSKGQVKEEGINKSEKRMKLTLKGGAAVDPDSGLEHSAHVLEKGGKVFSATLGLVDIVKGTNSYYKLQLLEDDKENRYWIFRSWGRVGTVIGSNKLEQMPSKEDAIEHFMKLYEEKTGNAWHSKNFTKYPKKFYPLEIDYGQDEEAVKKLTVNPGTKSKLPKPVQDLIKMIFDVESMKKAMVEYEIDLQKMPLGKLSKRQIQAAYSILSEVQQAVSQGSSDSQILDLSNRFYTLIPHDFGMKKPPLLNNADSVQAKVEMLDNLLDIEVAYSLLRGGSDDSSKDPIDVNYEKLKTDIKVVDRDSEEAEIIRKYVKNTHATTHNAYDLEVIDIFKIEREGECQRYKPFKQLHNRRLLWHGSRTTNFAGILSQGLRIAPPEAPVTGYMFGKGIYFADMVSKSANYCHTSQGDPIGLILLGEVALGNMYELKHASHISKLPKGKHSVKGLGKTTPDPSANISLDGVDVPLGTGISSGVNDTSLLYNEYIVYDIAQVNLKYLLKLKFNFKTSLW
Description: Inhibition of PARP1 (unknown origin) at 100 uM
Molecule `NC(=O)c1cccc(N)c1` displayed an inhibition of 100%.

Another assay concerns the target T1, Poly [ADP-ribose] polymerase 1. Kind of assay: Inhibition of PARP1 (unknown origin).
Details: not given
With `CC(C)N1CCCC(c2nc3c(C(N)=O)cncc3[nH]2)C1` (configuration not stated), half-maximal inhibition (IC50) was put at 651 nM.

Turning to `CN1CCC(c2nc3c(C(N)=O)cncc3[nH]2)CC1`, the IC50 worked out at 1450 nM.

`NC(=O)c1cncc2[nH]c(C3CCCNC3)nc12` (configuration not stated) registered an IC50 of 636 nM.

`CCCN1CCCC(c2nc3c(C(N)=O)cncc3[nH]2)C1` (configuration not stated) gave an IC50 of 938 nM.

`NC(=O)c1cncc2[nH]c(C3CCNCC3)nc12` gave an IC50 of 825 nM.

Molecule `CCCN1CCC(c2nc3c(C(N)=O)cncc3[nH]2)CC1` displayed an IC50 of 528 nM. This IC50 lies about 1.6-fold lower than the previous one.
